Drawing on patent US6326395A, “Antifungal activity of dicationic molecules” (priority 1999, dated 2001), this text covers MFC and MIC for one molecule.

By MFC is commonly meant the lowest tested concentration that kills the fungus rather than only halting it. Lower therefore signals more potent killing.

Structures can show the parent of a compound that is named as a salt.

Assay in all cases: antifungal susceptibility testing (MIC, MFC), extended spectrum
Assay [1] has as its system C. neoformans 114.96. Type of assay: cell-based, C. neoformans var. neoformans. Particulars: Cryptococcus neoformans, C. neoformans 114.96, fluconazole-resistant. An excerpt:
(§1) Antifungal susceptibility testing for compounds set forth in Examples 1-20 is discussed hereinbelow. The fungi that were employed included two reference strains, C. neoformans var. neoformans H99 and C. albicans A39 and the following clinical isolates: (1) two strains of fluconazole-resistant C. neoformans var. neoformans (135.95 and 114.96); (2) two strains of C. neoformans var. gattii (119.95 and 114.95); (3) two strains of fluconazole-resistant C. albicans (102.96 and 103.96); and (4) one strain each of Torulopsis glabrata (142.91), Candida parapsilosis (111.96), Candida krusei (132.91), C. tropicalis (110.96), Candida lusitaniae (111.92), Fusarium solani (152.89), Aspergillus fumigatus (168.95), and Aspergillus flavus (112.96). Antifungal susceptibility testing was performed using an RPMI-1640 medium (Sigma Chemical Co., St. Louis, Mo.) with glutamine, without sodium bicarbonate, and buffered at pH 7.0 with 0.165 M morpholine-propanesulfonic acid (MOPS).
(§2) In vitro susceptibility testing in the form of Minimum Inhibitory Concentration (MIC) experiments were performed using the broth macrodilution method according to the recommendations of the National Committee for Clinical Laboratory Standards (see 1995 manual). […] Briefly, this procedure specifies an inoculum grown at 35° C. and adjusted to a concentration of 0.5-2.5×10^3 CFU/ml with an incubation of the test performed at 35° C. and reading at 48 hours for all yeasts except for C. neoformans which is interpreted at 72 hr.
(§3) Minimum Fungicidal Concentration (MFC) experiments were adapted from a method by McGinnis (McGinnis, M. R., (1980) "Susceptibility testing and bioassay procedure", p. 431, Academic Press, Inc., New York). […] The lowest drug concentration that yielded three or fewer yeasts colonies was recorded as the MFC. […]
(§4) Minimum Fungicidal Concentration (MFC) experiments were adapted from a method by McGinnis (McGinnis, M. R., (1980) "Susceptibility testing and bioassay procedure", p.431, Academic Press, Inc., New York). […] The lowest drug concentration that yielded 3 or fewer yeasts colonies was recorded as the MFC. […]

Assay [2] deals with C. parapsilosis 111.96. Type of assay: cell-based, Candida parapsilosis. The following applies: Lodderomyces parapsilosis. As for the experimental part:
(§5) Antifungal susceptibility testing for compounds set forth in Examples 1-20 is discussed hereinbelow. […]
as §2, §3, §4

Assay [3] relates to Torulopsis glabrata 142.91. It is filed as cell-based. The following applies: Nakaseomyces glabratus.
Source text: as §1
(§6) In vitro susceptibility testing in the form of Minimum Inhibitory Concentration (MIC) experiments were performed using the broth macrodilution method according to the recommendations of the National Committee for Clinical Laboratory Standards (see 1995 manual). The only difference compared to the standardized procedure was the choice of drug dilutions ranging from 100 to 0.09 μg/ml. Briefly, this procedure specifies an inoculum grown at 35° C. and adjusted to a concentration of 0.5-2.5×10^3 CFU/ml with an incubation of the test performed at 35° C. and reading at 48 hours for all yeasts except for C. neoformans which is interpreted at 72 hr.
(§7) Minimum Fungicidal Concentration (MFC) experiments were adapted from a method by McGinnis (McGinnis, M. R., (1980) "Susceptibility testing and bioassay procedure", p. 431, Academic Press, Inc., New York). Briefly, 10 μl aliquots from tubes with growth inhibition were plated onto Sabouraud agar plates. The lowest drug concentration that yielded three or fewer yeasts colonies was recorded as the MFC.
(§8) Antifungal susceptibility testing for compounds set forth in Examples 21-28 is discussed hereinbelow. […]
as §4

In assay [4] the test system is C. tropicalis 110.96. Type of assay: cell-based. The following applies: Candida tropicalis.
Source text: as §1, §6, §7, §8, §4

Assay [5] relates to C. lusitaniae 111.92. Type of assay: cell-based, Candida lusitaniae. Particulars: Clavispora lusitaniae. Here is the method:
as §5, §2, §3, §4

In assay [6] the test system is Cryptococcus neoformans H99. It is filed as cell-based, C. neoformans var. neoformans. The following applies: Cryptococcus neoformans H99.
Source text: as §1, §2, §3, §4

On to `CC(C)NC(=N)c1ccc2nc(-c3ccc4c(c3)Cc3cc(-c5nc6ccc(C(=N)NC(C)C)cc6[nH]5)ccc3-4)[nH]c2c1` [Compound 57, 2,7-Bis[2-(5-N-isopropylamidino)benzimidazoyl]fluorene hydrochloride], for which the minimal fungicidal concentration (MFC) in assay [1] came to 0.78 µg/mL; in assay [2] it was 0.78 µg/mL; in assay [3], 0.78 µg/mL; in assay [4], 1.56 µg/mL; in assay [5] it was 3.12 µg/mL; in assay [6] it was 0.78 µg/mL. Also, the MIC was 0.78 µg/mL in assay [1] (72 hr, read-out: MIC80); 0.78 µg/mL in assay [2] (48 hours, read-out: MIC80); 0.78 µg/mL in assay [3] (48 hours, read-out: MIC80); 0.78 µg/mL in assay [4] (48 hours, read-out: MIC80); 0.78 µg/mL in assay [5] (48 hours, read-out: MIC80); 0.78 µg/mL in assay [6] (72 hr, read-out: MIC80).
